Source: patent US8796256B2 (Janssen Pharmaceutica NV, priority 2010, dated 2014)

Target: T1, ERR1 (also known as ERR-α or ERR-1) (Homo sapiens, UniProt P11474)
T1 sequence (P11474 193-421 limits assumed): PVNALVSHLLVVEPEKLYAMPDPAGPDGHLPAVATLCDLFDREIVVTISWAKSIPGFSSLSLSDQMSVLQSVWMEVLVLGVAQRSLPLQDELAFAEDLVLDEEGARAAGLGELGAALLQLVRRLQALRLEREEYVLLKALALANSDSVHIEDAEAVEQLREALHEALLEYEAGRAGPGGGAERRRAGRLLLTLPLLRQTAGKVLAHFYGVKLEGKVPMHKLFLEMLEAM
Test: TR-FRET assay (disruption of co-activator peptide binding to ERR1 LBD)
Type: biochemical
Conditions: 6 nM 6His-ERR1LBD, 6 nM GST-SRC-2 peptide; average of 3 independent experiments
Outline: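 Homogeneous TR-FRET measuring displacement of GST-hSRC2 co-activator peptide (6 nM) from His-tagged ERR1 LBD (6 nM), detected with α-GST Eu cryptate (30 nM) and α-His-XL665 (7.5 nM). Buffer 25 mM Tris pH 8, 2.5 mM Hepes, 20 mM KCl, 1 mM DTT, 0.05 mg/mL delipidated BSA; equilibration 4-18 h at 25° C. Hyperbolic dose-response fit, mean of 3 experiments.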

SMILES: COC(=O)[C@@H]1C[C@@H](N2C(=O)S/C(=C\c3ccc4c(cnn4Cc4ccc(Cl)cc4C(F)(F)F)c3)C2=O)CN1 [Compound 180, Methyl (4R)-4-[(5Z)-5-({1-[4-chloro-2-(trifluoromethyl)benzyl]-1H-indazol-5-yl}methylidene)-2,4-dioxo-1,3-thiazolidin-3-yl]-L-prolinate]
- EC50: 32 nM

SMILES: CS(=O)(=O)NC(=O)CN1C(=O)S/C(=C\c2ccc3c(cnn3Cc3ccc(C(F)(F)F)cc3C(F)(F)F)c2)C1=O [Compound 60, 2-[(5Z)-5-({1-[2,4-Bis(trifluoromethyl)-benzyl]-1H-indazol-5-yl}methylidene)-2,4-dioxo-1,3-thiazolidin-3-yl]-N-(methyl-sulfonyl)acetamide]
- EC50: 57 nM

SMILES: CN1CCCC1CCN1C(=O)S/C(=C\c2ccc3c(cnn3Cc3ccc(Cl)cc3C(F)(F)F)c2)C1=O (stereo not shown) [Compound 140, (5Z)-5-({1-[4-Chloro-2-(trifluoromethyl)benzyl]-1H-indazol-5-yl}methylidene)-3-[2-(1-methylpyrrolidin-2-yl)ethyl]-1,3-thiazolidine-2,4-dione]
- EC50: 32 nM

SMILES: O=C(O)c1ccc(CN2C(=O)S/C(=C\c3ccc4c(cnn4Cc4ccc(Cl)cc4C(F)(F)F)c3)C2=O)o1 [Compound 380, 5-{[(5Z)-5-({1-[4-Chloro-2-(trifluoromethyl)benzyl]-1H-indazol-5-yl}methylidene)-2,4-dioxo-1,3-thiazolidin-3-yl]methyl}furan-2-carboxylic acid]
- EC50: 15 nM

SMILES: O=C(O)CN1CCC[C@H]1CN1C(=O)S/C(=C\c2ccc3c(cnn3Cc3ccc(Cl)cc3C(F)(F)F)c2)C1=O [Compound 151, [(2S)-2-{[(5Z)-5-({1-[4-Chloro-2-(trifluoromethyl)benzyl]-1H-indazol-5-yl}methylidene)-2,4-dioxo-1,3-thiazolidin-3-yl]methyl}pyrrolidin-1-yl]acetic acid]
- EC50: 30 nM

SMILES: CN1CCN(N2C(=O)S/C(=C\c3ccc4c(cnn4Cc4ccc(Cl)cc4C(F)(F)F)c3)C2=O)CC1 [Compound 349, (5Z)-5-({1-[4-Chloro-2-(trifluoromethyl)benzyl]-1H-indazol-5-yl}methylidene)-3-(4-methylpiperazin-1-yl)-1,3-thiazolidine-2,4-dione]
- EC50: 24 nM

SMILES: CC(C)N1C[C@@H](F)[C@H](N2C(=O)S/C(=C\c3ccc4c(cnn4Cc4ccc(Cl)cc4C(F)(F)F)c3)C2=O)C1 (relative stereo) [Compound 321, (5Z)-5-({1-[4-Chloro-2-(trifluoromethyl)benzyl]-1H-indazol-5-yl}methylidene)-3-[trans-4-fluoro-1-(1-methylethyl)pyrrolidin-3-yl]-1,3-thiazolidine-2,4-dione]
- EC50: 43 nM

SMILES: CN(C)S(=O)(=O)NC(=O)CN1C(=O)S/C(=C\c2ccc3c(cnn3Cc3ccc(C(F)(F)F)cc3C(F)(F)F)c2)C1=O [Compound 88, 2-[(5Z)-5-({1-[2,4-Bis(trifluoromethyl)benzyl]-1H-indazol-5-yl}methylidene)-2,4-dioxo-1,3-thiazolidin-3-yl]-N-(dimethylsulfamoyl)acetamide]
- EC50: 134 nM

SMILES: N#CCN1CC[C@@H](N2C(=O)S/C(=C\c3ccc4c(cnn4Cc4ccc(Cl)cc4C(F)(F)F)c3)C2=O)[C@H](F)C1 [Compound 388, {(3R,4R)-4-[(5Z)-5-({1-[4-Chloro-2-(trifluoromethyl)benzyl]-1H-indazol-5-yl}methylidene)-2,4-dioxo-1,3-thiazolidin-3-yl]-3-fluoropiperidin-1-yl}acetonitrile]
- EC50: 34 nM

SMILES: Cc1nn(Cc2ccc(Cl)cc2C(F)(F)F)c2ccc(/C=C3\SC(=O)N(NS(C)(=O)=O)C3=O)cc12 [Compound 365, N-[(5Z)-5-({1-[4-Chloro-2-(trifluoromethyl)benzyl]-3-methyl-1H-indazol-5-yl}methylidene)-2,4-dioxo-1,3-thiazolidin-3-yl]methanesulfonamide]
- EC50: 23 nM

SMILES: Cc1nn(C)c(Cl)c1S(=O)(=O)NCCN1C(=O)S/C(=C\c2ccc3c(cnn3Cc3ccc(Cl)cc3C(F)(F)F)c2)C1=O [Compound 418, 5-Chloro-N-{2-[(5Z)-5-({1-[4-chloro-2-(trifluoromethyl)benzyl]-1H-indazol-5-yl}methylidene)-2,4-dioxo-1,3-thiazolidin-3-yl]ethyl}-1,3-dimethyl-1H-pyrazole-4-sulfonamide]
- EC50: 83 nM

SMILES: O=C1S/C(=C\c2ccc3c(cnn3Cc3ccc(Cl)cc3C(F)(F)F)c2)C(=O)N1Cc1ncc[nH]1 [Compound 403, (5Z)-5-({1-[4-Chloro-2-(trifluoromethyl)benzyl]-1H-indazol-5-yl}methylidene)-3-(1H-imidazol-2-ylmethyl)-1,3-thiazolidine-2,4-dione]
- EC50: 20 nM

SMILES: COc1ccc(Cn2nc(OC)c3cc(/C=C4\SC(=O)N(CCN5CCOCC5)C4=O)ccc32)c(C(F)(F)F)c1 [Compound 25, (5Z)-5-({3-Methoxy-1-[4-methoxy-2-(trifluoromethyl)benzyl]-1H-indazol-5-yl}methylidene)-3-(2-morpholin-4-ylethyl)-1,3-thiazolidine-2,4-dione]
- EC50: 16 nM

SMILES: O=C1S/C(=C\c2ccc3c(cnn3Cc3ccc(Cl)cc3C(F)(F)F)c2)C(=O)N1CCN1CCOCC1 [Compound 3, (5Z)-5-({1-[4-Chloro-2-(trifluoromethyl)benzyl]-1H-indazol-5-yl}methylidene)-3-(2-morpholin-4-ylethyl)-1,3-thiazolidine-2,4-dione]
- EC50: 43 nM

SMILES: CC(=O)NS(=O)(=O)CN1C(=O)S/C(=C\c2ccc3c(cnn3Cc3ccc(F)cc3C(F)(F)F)c2)C1=O [Compound 64, N-({[(5Z)-5-({1-[4-Fluoro-2-(trifluoromethyl)benzyl]-1H-indazol-5-yl}methylidene)-2,4-dioxo-1,3-thiazolidin-3-yl)methyl}sulfonyl)acetamide]
- EC50: 485 nM

SMILES: O=C1S/C(=C\c2ccc3c(cnn3Cc3ccc(Cl)cc3C(F)(F)F)c2)C(=O)N1C[C@@H]1C[C@@H](O)CN1CCO [Compound 186, (5Z)-5-({1-[4-Chloro-2-(trifluoromethyl)benzyl]-1H-indazol-5-yl}methylidene)-3-{[(2S,4R)-4-hydroxy-1-(2-hydroxyethyl)pyrrolidin-2-yl]methyl}-1,3-thiazolidine-2,4-dione]
- EC50: 54 nM

SMILES: O=C1S/C(=C\c2ccc3c(cnn3Cc3ccc(Cl)cc3C(F)(F)F)c2)C(=O)N1CCNCCO [Compound 52, (5Z)-5-({1-[4-Chloro-2-(trifluoromethyl)benzyl]-1H-indazol-5-yl}methylidene)-3-{2-[(2-hydroxyethyl)amino]ethyl}-1,3-thiazolidine-2,4-dione]
- EC50: 27 nM

SMILES: O=C1S/C(=C\c2ccc3c(cnn3Cc3ccc(Cl)cc3C(F)(F)F)c2)C(=O)N1C[C@@H]1CCCNC1 [Compound 95, (5Z)-5-({1-[4-Chloro-2-(trifluoromethyl)benzyl]-1H-indazol-5-yl}methylidene)-3-[(3R)-piperidin-3-ylmethyl]-1,3-thiazolidine-2,4-dione]
- EC50: 57 nM

SMILES: CN1CCN(N2C(=O)S/C(=C\c3ccc4c(cnn4Cc4ccc(C(F)(F)F)cc4C(F)(F)F)c3)C2=O)CC1 [Compound 350, (5Z)-5-({1-[2,4-Bis(trifluoromethyl)benzyl]-1H-indazol-5-yl}methylidene)-3-(4-methylpiperazin-1-yl)-1,3-thiazolidine-2,4-dione]
- EC50: 38 nM

SMILES: O=C(NN1C(=O)S/C(=C\c2ccc3c(cnn3Cc3ccc(Cl)cc3C(F)(F)F)c2)C1=O)C1CC1 [Compound 373, N-[(5Z)-5-({1-[4-Chloro-2-(trifluoromethyl)benzyl]-1H-indazol-5-yl}methylidene)-2,4-dioxo-1,3-thiazolidin-3-yl]cyclopropanecarboxamide]
- EC50: 7 nM

SMILES: N[C@H]1C[C@H](CN2C(=O)S/C(=C\c3ccc4c(cnn4Cc4ccc(Cl)cc4C(F)(F)F)c3)C2=O)C1 [Compound 100, (5Z)-3-[(trans-3-Aminocyclobutyl)methyl]-5-({1-[4-chloro-2-(trifluoromethyl)benzyl]-1H-indazol-5-yl}methylidene)-1,3-thiazolidine-2,4-dione]
- EC50: 46 nM

SMILES: O=C1S/C(=C\c2ccc3c(cnn3Cc3ccc(C(F)(F)F)cc3C(F)(F)F)c2)C(=O)N1C[C@H]1CCCN1 [Compound 82, (5Z)-5-({1-[2,4-Bis(trifluoromethyl)benzyl]-1H-indazol-5-yl}methylidene)-3-[(2R)-pyrrolidin-2-ylmethyl]-1,3-thiazolidine-2,4-dione]
- EC50: 81 nM

SMILES: CN1CCC(N2C(=O)S/C(=C\c3ccc4c(cnn4Cc4ccc(Cl)cc4C(F)(F)F)c3)C2=O)CC1 [Compound 135, (5Z)-5-({1-[4-Chloro-2-(trifluoromethyl)benzyl]-1H-indazol-5-yl}methylidene)-3-(1-methylpiperidin-4-yl)-1,3-thiazolidine-2,4-dione]
- EC50: 19 nM

SMILES: COCCN1C(=O)S/C(=C\c2ccc3c(ccn3Cc3ccc(F)cc3C(F)(F)F)c2)C1=O [Compound 251, (5Z)-5-[(1-{[4-Fluoro-2-(trifluoromethyl)phenyl]methyl}-1H-indol-5-yl)methylidene]-3-[2-(methyloxy)ethyl]-1,3-thiazolidine-2,4-dione]
- EC50: 350 nM

SMILES: O=C1S/C(=C\c2ccc3c(cnn3Cc3ccc(Cl)cc3C(F)(F)F)c2)C(=O)N1C[C@@H]1CSCCN1 [Compound 98, (5Z)-5-({1-[4-Chloro-2-(trifluoromethyl)benzyl]-1H-indazol-5-yl}methylidene)-3-[(3R)-thiomorpholin-3-ylmethyl]-1,3-thiazolidine-2,4-dione]
- EC50: 980 nM
